We go through 5 compounds from patent US20150218599A1, “METHODS FOR PRODUCTION OF ALCOHOLS FROM CARBOXYLIC ACIDS VIA FERMENTATION” (Cornell University, priority 2012, published 2015).

The subject of test [1] is C. ljungdahlii ERI-2. Description: Batch syngas fermentation in 1 L bottles with a finite amount of syngas (stoichiometry). Type of test: cell-based, Clostridium ljungdahlii. The note with it: 15 mM n-butyric acid, 25 to 115 h. How it is done:
The stoichiometry of substrates and products of syngas fermentation with 0 mM n-butyric acid and 15 mM n-butyric acid was determined in 1 L rubber-stoppered Pyrex glass bottles filled with […] medium without yeast extract and 1051.6 ml syngas headspace at a pressure of 28 psi. […] Here, yeast extract was omitted from the growth medium to minimize the interference of organic compounds (amino acids) in the fermentation. Two needles, each connected to a three-way valve, were used to take gas or liquid samples from the reactor. Gas pressure was measured using gauge pressure transducers (Model PX26, Omega Engineering, Inc., Stamford, Conn.) attached to hypodermic needles inserted through a rubber septum on the three-way valve of the sampling port. […] Cell density (OD600nm), pH, headspace gas pressure, concentrations of carbon monoxide, hydrogen, and carbon dioxide in the headspace, and concentrations of carboxylic acids and solvents in the culture medium were monitored daily. […]
Analytical procedures. Cell dry weight concentration in the cultures was determined through measurement of the optical density with a Milton Roy Spectronic 1201 spectrophotometer at a wavelength of 600 nm after determining a correlation coefficient of 242 mg dry weight/(L*OD600nm). The carbon content was calculated using the universal proportion of elements in microbial biomass (C5H7O2N). […]

The subject of test [2] is C. ljungdahlii ERI-2. Description: Carboxylic acid reduction in batch cultures with constant syngas supply. Type of test: cell-based, Clostridium ljungdahlii. Conditions: 15 mM carboxylic acid; for max. opt. density at 600 nm: triplicate. How it is done:
(§1) All chemicals were purchased from Sigma-Aldrich, St. Louis, Mo., unless stated otherwise. Bacterial strain and growth conditions. Most experiments were conducted with C. ljungdahlii ERI-2 (ATTC 55380), which has been used successfully for syngas to ethanol fermentation. Some experiments were repeated with C. ragsdalei P11 (ATTC BAA-622). Bacteria were grown anaerobically at 35° C. in medium designed for efficient syngas fermentation. This medium is mostly based on ATCC medium 1754 but contains higher concentrations of the macronutrient elements. The yeast extract concentration was 0.5 g/L or 0.0 g/L as indicated for each experiment; the concentration of MES (2-(N-morpholino)ethanesulfonic acid) was 150 mM; carboxylic acids (propionic, n-butyric, isobutyric, n-valeric or n-caproic acid) were added to final concentrations of 15 mM before adjustment of the pH to 5.5. The syngas atmosphere was a synthetic blend of 60% [vol/vol]carbon monoxide, 35% hydrogen, and 5% carbon dioxide (Airgas East, Ithaca, N.Y.). Precultures of C. ljungdahlii or C. ragsdalei were grown in 250 ml serum bottles containing 20 ml medium with 0.5 g/L or 0.0 g/L yeast extract (the latter for inoculation of experiments with no yeast extract) and syngas in the headspace at a pressure of 28 psi with finite amounts of syngas. Precultures were maintained in an active state by weekly transfer of 2% into a fresh serum bottle with a headspace of finite syngas.
Experimental setup. The experiments to determine the ability of C. ljungdahlii to reduce propionic acid, n-butyric acid, n-valeric acid, n-caproic acid, or isobutyric acid (2-methyl propionic acid) to the corresponding alcohols were performed in triplicate in 250 ml rubber-stoppered Pyrex glass bottles (Fisher Scientific, Pittsburgh, Pa.), which were used as batch systems in regards to the growth medium, but with constant syngas supply (FIG. 1A). Three stainless steel needles of different length (21 gauge, Becton Dickinson Franklin Lakes, N.J., and ColeParmer, Vernon Hills, Ill.) were punched through each rubber stopper as gas supply, vent, and sample ports. The reactors were filled with 220 mL medium containing 0.5 g/L yeast extract and one of each carboxylic acids at a concentration of 15 mM, autoclaved, and then equipped with fermentation airlocks (www.winemakingsuperstore.com) filled with 5% sulfuric acid to prevent contamination by other microbes or oxygen, and placed in a temperature-controlled recirculating water bath for mechanical agitation using a 15 multi-position IKA magnetic stirrer (Cole-Parmer Vernon Hills, Ill. 60061 USA). Artificial syngas was constantly supplied to up to 12 reactors at a time, at a flow rate of 5 mL/min to each reactor with a gassing station with multiple outlets and low-flow brass needle valves (McMaster-Carr, Aurora, Ohio), sterile Masterflex viton tubing (Cole Parmer, Vernon Hills, Ill.), 0.22-μm sterile filters (Fisher Scientific), and sterile needles through the rubber stopper (size 6.5, VWR, Radnor, Pa.) connected to gas diffusion stones (Fisher Scientific). All reactors were inoculated with 2% exponentially growing pre-cultures. The fermentation was operated for ca. 400 h.
(§2) Analytical procedures. Cell dry weight concentration in the cultures was determined through measurement of the optical density with a Milton Roy Spectronic 1201 spectrophotometer at a wavelength of 600 nm after determining a correlation coefficient of 242 mg dry weight/(L*OD600nm). The carbon content was calculated using the universal proportion of elements in microbial biomass (C5H7O2N). A gas chromatography system (HP 5890, Hewlett Packard, Palo Alto, Calif.), which was equipped with a 7673 autoinjector and flame ionization detector, was used for the quantification of carboxylic acids and alcohols. GC columns were purchased from Sigma-Aldrich, Inc., St. Louis, Mo. The flow rates of hydrogen, air, and helium were 35, 380, and 30 mL/min. […]

Test [3] relates to C. ragsdalei P11. The description is as above. The note with it: 15 mM carboxylic acid; for max. opt. density at 600 nm: triplicate. Type of test: cell-based, Clostridium ragsdalei. How it is done:
as §1
Experimental setup. The experiments to determine the ability of C. ljungdahlii to reduce propionic acid, n-butyric acid, n-valeric acid, n-caproic acid, or isobutyric acid (2-methyl propionic acid) to the corresponding alcohols were performed in triplicate in 250 ml rubber-stoppered Pyrex glass bottles (Fisher Scientific, Pittsburgh, Pa.), which were used as batch systems in regards to the growth medium, but with constant syngas supply (FIG. 1A). Three stainless steel needles of different length (21 gauge, Becton Dickinson Franklin Lakes, N.J., and ColeParmer, Vernon Hills, Ill.) were punched through each rubber stopper as gas supply, vent, and sample ports. […]
as §2, with “alcohols.” for “alcohols. GC columns were purchased from Sigma-Aldrich, Inc., St. Louis, Mo. The flow rates of hydrogen, air, and helium were 35, 380, and 30 mL/min.”

As for `CCCC(=O)O` [n-butyric acid], in test [1], the “cell mass DW” value is on record as 16.65 ± 2.99 mg and the “maximum OD600” value was 1.34 ± 0.21. For the same compound, in test [2], the growth rate stood at 0.094 ± 0.004 h⁻¹ and the “max. opt. density at 600 nm” value stood at 2.71 ± 0.39. Also, in test [3], the growth rate worked out at 0.120 ± 0.004 h⁻¹ and the “max. opt. density at 600 nm” value is listed as 0.98 ± 0.05.

As for `CCC(=O)O` [propionic acid], in test [2], the growth rate was 0.084 ± 0.012 h⁻¹ and the “max. opt. density at 600 nm” value is reported as 2.69 ± 0.19. In test [3], the growth rate was 0.093 ± 0.024 h⁻¹ and the “max. opt. density at 600 nm” value is on record as 0.53 ± 0.14.

`CCCCC(=O)O` [n-valeric acid]: in test [2], the growth rate was 0.077 ± 0.007 h⁻¹ and the “max. opt. density at 600 nm” value stood at 2.01 ± 0.04.

For the compound `CC(C)C(=O)O` [isobutyric acid], in test [2], the growth rate stood at 0.077 ± 0.008 h⁻¹ and the “max. opt. density at 600 nm” value was determined as 2.50 ± 0.31.

Regarding `CCCCCC(=O)O` [n-caproic acid], in test [2], the growth rate turned out to be 0.049 ± 0.003 h⁻¹ and the “max. opt. density at 600 nm” value was 1.47 ± 0.17.
